From ChEMBL document CHEMBL2074022, “Penetration of endogenous steroid hormones corticosterone, cortisol, aldosterone and progesterone into the brain is enhanced in mice deficient for both mdr1a and mdr1b P-glycoproteins” (J Neuroendocrinol, 2002)

What was measured:
Details in all cases: in vivo
[1] = target: T1, ATP-dependent translocase ABCB1 (Mus musculus, UniProt P21447); assay: (§1) TP_TRANSPORTER: increase in testes concentration in mdr1a/1b(-/-) mouse; format: functional, organism-based, Testis
[2] = target: T1, ATP-dependent translocase ABCB1; assay: TP_TRANSPORTER: increase in brain concentration in mdr1a/1b(-/-) mouse; format: functional, organism-based
[3] = target: P-glycoprotein 1 and 3 (MDR1a/MDR1b) (Mus musculus, UniProt P21447+P06795); assay: as §1; format: functional, organism-based, Testis

T1 sequence (P21447 whole entry): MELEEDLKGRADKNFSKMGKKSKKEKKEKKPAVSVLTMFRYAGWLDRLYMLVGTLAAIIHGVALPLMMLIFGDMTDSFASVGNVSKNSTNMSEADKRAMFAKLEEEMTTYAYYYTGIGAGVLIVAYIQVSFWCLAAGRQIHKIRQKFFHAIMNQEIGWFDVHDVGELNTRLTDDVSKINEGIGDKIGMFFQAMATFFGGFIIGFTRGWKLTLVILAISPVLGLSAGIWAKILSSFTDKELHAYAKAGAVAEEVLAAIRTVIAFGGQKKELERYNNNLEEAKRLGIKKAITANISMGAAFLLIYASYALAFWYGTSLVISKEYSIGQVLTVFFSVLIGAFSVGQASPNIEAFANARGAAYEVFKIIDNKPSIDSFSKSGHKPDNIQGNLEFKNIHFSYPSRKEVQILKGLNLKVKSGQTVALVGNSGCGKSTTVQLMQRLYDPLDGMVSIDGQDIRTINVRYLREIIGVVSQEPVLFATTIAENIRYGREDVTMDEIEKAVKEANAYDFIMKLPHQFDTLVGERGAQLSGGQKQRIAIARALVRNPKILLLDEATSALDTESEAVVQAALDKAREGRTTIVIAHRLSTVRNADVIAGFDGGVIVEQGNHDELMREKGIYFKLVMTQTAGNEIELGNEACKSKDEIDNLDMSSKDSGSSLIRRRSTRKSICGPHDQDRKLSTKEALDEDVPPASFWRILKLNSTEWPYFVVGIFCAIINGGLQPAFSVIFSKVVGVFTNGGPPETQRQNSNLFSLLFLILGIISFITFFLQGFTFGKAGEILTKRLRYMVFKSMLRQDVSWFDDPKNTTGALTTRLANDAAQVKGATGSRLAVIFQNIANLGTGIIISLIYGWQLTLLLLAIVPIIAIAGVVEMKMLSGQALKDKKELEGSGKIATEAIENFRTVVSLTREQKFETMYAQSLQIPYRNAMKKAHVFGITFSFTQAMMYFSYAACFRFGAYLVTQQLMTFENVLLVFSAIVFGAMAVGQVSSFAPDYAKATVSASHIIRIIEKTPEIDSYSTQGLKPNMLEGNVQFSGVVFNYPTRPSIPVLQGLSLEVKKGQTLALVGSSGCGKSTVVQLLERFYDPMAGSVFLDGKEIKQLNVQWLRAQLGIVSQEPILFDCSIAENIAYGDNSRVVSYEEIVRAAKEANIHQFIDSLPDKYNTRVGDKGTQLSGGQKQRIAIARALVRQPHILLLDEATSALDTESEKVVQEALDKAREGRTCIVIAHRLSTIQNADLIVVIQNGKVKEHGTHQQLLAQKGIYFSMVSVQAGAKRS

Activity [3] | SMILES | Activity [1] | Activity [2]
 | CC(=O)[C@H]1CC[C@H]2[C@@H]3CCC4=CC(=O)CC[C@]4(C)[C@H]3CC[C@]12C [PROGESTERONE] | substrate [+] | substrate [+]
substrate [+] | C[C@]12CCC(=O)C=C1CC[C@@H]1[C@@H]2[C@@H](O)C[C@@]2(C)[C@H]1CC[C@]2(O)C(=O)CO [HYDROCORTISONE] |  | 
substrate [+] | C[C@]12CCC(=O)C=C1CC[C@@H]1[C@@H]2[C@@H](O)C[C@]2(C=O)[C@@H](C(=O)CO)CC[C@@H]12 [ALDOSTERONE] |  | 
